Laboratory results: US9540355B2, “Irciniastatin analogues” (priority 2013, dated 2017)

How the values were obtained:
[1] = system: Hela; details: cell-based assay, read-out: translation inhibition (EC50 nM) cell-based assay Hela; cited from earlier work
[2] = system: SK-MEL-S; details: cell-based assay, read-out: translation inhibition (EC50 nM) cell-based assay SK-MEL-S; cited from earlier work
[3] = system: SK-MEL-S; details: read-out: cytotoxicity (IC50 nM) SK-MEL-S, CellTiter-Glo, mean ± standard deviation; cited from earlier work
[4] = system: translation; details: in vitro assay; mean ± standard deviation; read-out: translation inhibition (EC50 nM) in vitro assay; cited from earlier work
[5] = system: Hela; details: read-out: cytotoxicity (IC50 nM) Hela, CellTiter-Glo, mean ± standard deviation; cited from earlier work
[6] = system: NHDF; details: normal; cited from earlier work
[7] = system: HOP62; details: HOP62, lung; cited from earlier work
[8] = system: H226; details: H226, lung; cited from earlier work
[9] = system: MKN45; details: MKN45, gastric; cited from earlier work
[10] = system: SW620; details: SW620, colon; cited from earlier work
[11] = system: MB231; details: MB231, breast; cited from earlier work
[12] = system: DU145; details: DU145, prostate; cited from earlier work
[13] = system: ACHN; details: kidney; cited from earlier work
[14] = system: PC3; details: PC3, prostate; cited from earlier work
[15] = system: A2058; test: Cell growth inhibition assay (CellTiter-Glo); assay type: cell-based, human; details: for IC50: Homo sapiens, 96 h, 4 days incubation; for Selectivity vs. IMR-90, A2058: ratio IC50[IMR-90]:IC50[tumor cell line]
Description: (§1) Cell Culture and Cell Growth Inhibition Assay.
(§2) The chosen cell lines are all human cancer cell lines except for the 4T1 murine breast cancer line, representing a wide variety of cancer types including breast (MDA-MB-453), kidney (A498), lung (H1975), pancreatic (PANC-1) and endometrial cancer (AN3CA, HEC-1A, and RL95-2), glioblastoma (U251 and U-87MG), melanoma (A2058 and LOXIMVI) and uterine sarcoma (MES-SA). All the cancer cell lines can be obtained from the American Type Culture Collection (ATCC, Manassas, Va., USA) with the exception of U251 which can be provided by the National Cancer Institute Tumor Repository (Frederick, Md.) and is cultured in the standard tissue culture media appropriate for each cell line. All the culture media are supplemented with 10% fetal bovine serum (FBS), 100 I.U./mL penicillin and 100 μg/mL streptomycin. For the cell growth inhibition assay, the cells are seeded in 96-well tissue culture plates at 500-3000 cells/well (seeding density empirically adjusted for each cell line based on growth rate optimization). The cells are allowed to attach for a minimum of 5 h prior to compound administration. The cells are incubated for a period of 4 days after compound addition. Following the incubation period, CellTiter-Glo reagent (Promega, Madison, Wis., USA) is added to all the wells to assess cell proliferation/viability. Luminescence is measured using an Envision microplate reader (Perkin Elmer, Waltham, Mass., USA). The IC50 values were calculated as the concentration which inhibited cell growth to 50% of DMSO control treated cell populations.

[16] = system: H522-T1; test: Cell growth inhibition assay (CellTiter-Glo); assay type: cell-based, human; details: for IC50: Homo sapiens, 96 h, 4 days incubation; for Selectivity vs. IMR-90, H522-T1: ratio IC50[IMR-90]:IC50[tumor cell line]
Description: as §1, §2

[17] = system: IMR-90 human fibroblast cells; test: IMR-90 cytotoxicity assay; assay type: cell-based; details: IMR-90, 72 h, read-out: IC50 (nM) Quiescent IMP-90
Source text: IMR-90 Cytotoxicity Assay.
To evaluate the effect of compounds of the invention on non-proliferating normal cells, an in vitro cytotoxicity assay developed to distinguish between true antiproliferative activity and general cellular cytotoxicity unrelated to proliferation was used. Rudolph-Owen L A, Salvato K, Cheng C, Wu J, Towle M J and Littlefield B A: A 96-well plate cell-based assay to quantify undesired cytotoxic effects against quiescent non-dividing cells. Proc Amer Assoc Cancer Res 45: 264-265, 2004. In brief, IMR-90 human fibroblast cells, obtained from ATCC, were grown for 4 days to confluency in MEM containing 10% FBS and supplemented with L-glutamine, penicillin/streptomycin. After washing, the medium was replaced with complete MEM containing 0.1% FBS and the cells were cultured for 3 additional days to achieve complete quiescence. A compound of the invention or vehicle control was then added in the continued presence of 0.1% FBS, followed by incubation for 3 days at 37° C. Cell viability was assessed by the measurement of cellular ATPlevels using CellTiter-Glo reagent (Promega).

[18] = system: HCT-116; test: Cell growth inhibition assay (CellTiter-Glo); assay type: cell-based, human; details: for IC50: Homo sapiens, 96 h, 4 days incubation; for Selectivity vs. IMR-90, HCT-116: ratio IC50[IMR-90]:IC50[tumor cell line]
Description: as §1, §2

[19] = system: KM20L2; details: colon KM20L2; cited from earlier work
[20] = system: BXPC-3; details: pancreas BXPC-3; cited from earlier work
[21] = system: P388 murine lymphocytic leukemia cell line; details: cited from earlier work
[22] = system: MCF-7; details: breast MCF-7; cited from earlier work
[23] = system: NCI-H460; details: lung NCI-H460; cited from earlier work
[24] = system: SF-268; details: CNS SF-268; cited from earlier work
[25] = system: DU-145; details: prostate DU-145; cited from earlier work

| Molecule | EC50 [1] | EC50 [2] | IC50 [3] | EC50 [4] | IC50 [5] | IC50 [15] | Selectivity vs. IMR-90, A2058 [15] | IC50 [16] | Selectivity vs. IMR-90, H522-T1 [16] | IC50 [17] | further results |
| --- | --- | --- | --- | --- | --- | --- | --- | --- | --- | --- | --- |
| C=C(C)C[C@@H](OC)[C@H](O)C(=O)N[C@@H](OC)[C@@H]1C[C@@H](O)C(C)(C)[C@@H](C[C@H](O)[C@@H](C)C2Cc3c(C)c(O)cc(O)c3C(=O)O2)O1 (stereo partly shown) [compound 3] | 4950 ± 4870 nM | 495 nM | 352 ± 12.1 nM | 346 ± 64 nM | 614 ± 267 nM |  |  |  |  |  |  |
| C=C(C)C[C@H](OC)[C@H](O)C(=O)N[C@@H](OC)[C@@H]1C[C@@H](O)C(C)(C)[C@@H](C[C@H](O)COC)O1 [compound 5] | 1650 ± 1060 nM | 578 nM | > 1000 nM | 641 ± 262 nM | > 1000 nM |  |  |  |  |  |  |
| C=C(C)C[C@H](OC)[C@H](O)C(=O)N[C@@H](OC)[C@@H]1C[C@@H](O)C(C)(C)[C@@H](C[C@H](O)[C@@H](C)C2Cc3c(C)c(O)cc(O)c3C(=O)O2)O1 (stereo partly shown) [1a] | 22 ± 1.4 nM | 33 ± 10 nM | 0.27 ± 0.04 nM | 28 ± 7 nM | 0.64 ± 0.14 nM |  |  |  |  |  |  |
| C11-Deoxyirciniastatin [compound 29] |  |  |  |  |  |  |  |  |  |  | IC50 [6]: 0.066 ± 0.004 nM; IC50 [7]: 0.055 ± 0.002 nM; IC50 [8]: 0.034 ± 0.004 nM; IC50 [9]: 0.076 ± 0.004 nM; IC50 [10]: 0.16 ± 0.015 nM; IC50 [11]: 0.142 ± 0.007 nM; IC50 [12]: 0.149 ± 0.005 nM; IC50 [13]: 0.265 ± 0.008 nM; IC50 [14]: 0.073 ± 0.006 nM |
| C=C(C)C[C@H](OC)[C@H](O)C(=O)N[C@@H](OC)[C@@H]1C/C(=N/OC)C(C)(C)[C@@H](C[C@H](O)[C@@H](C)[C@H]2Cc3c(C)c(O)cc(O)c3C(=O)O2)O1 (stereo in doubt) [C(11)-O-Methyloxime-Irciniastatin B] |  |  |  |  |  | 0.5 nM | 92 | 0.8 nM | 58 | 46 nM |  |
| Cc1c(O)cc(O)c2c1CC([C@H](C)[C@@H](O)C[C@H]1O[C@H](C(N)=O)C[C@@H](O)C1(C)C)OC2=O (stereo partly shown) [compound 7] | > 10000 nM | > 10000 nM | > 1000 nM | > 10000 nM | > 1000 nM |  |  |  |  |  |  |
| C=C(C)C[C@H](OC)[C@H](O)C(=O)N[C@H](OC)[C@@H]1C[C@@H](O)C(C)(C)[C@@H](C[C@H](O)COC)O1 [compound 6] | > 10000 nM | > 10000 nM | > 1000 nM | > 10000 nM | > 1000 nM |  |  |  |  |  |  |
| C=C(C)C[C@H](OC)[C@H](O)C(=O)N[C@H](OC)[C@@H]1C[C@@H](O)C(C)(C)[C@@H](C[C@H](O)[C@@H](C)C2Cc3c(C)c(O)cc(O)c3C(=O)O2)O1 (stereo partly shown) [compound 4] | 2200 ± 1410 nM | 843 nM | 763 ± 70 nM | 318 ± 182 nM | > 1000 nM |  |  |  |  |  |  |
| C[C@@H]1C[C@@H]([C@H](O)CC2CC(=O)NC(=O)C2)C(=O)[C@@H](C)C1 [cycloheximide] | 3320 ± 434 nM | 2670 nM | 3130 ± 764 nM | 3150 ± 2350 nM | 2290 ± 1520 nM |  |  |  |  |  |  |
| C=C(C)C[C@H](OC)[C@H](O)C(=O)N[C@@H](OC)[C@@H]1C[C@H](O)C(C)(C)[C@@H](C[C@H](O)[C@@H](C)[C@H]2Cc3c(C)c(O)cc(O)c3C(=O)O2)O1 [epi-C(11)-Irciniastatin A] |  |  |  |  |  | 0.4 nM | 85 | 0.9 nM | 38 | 34 nM | IC50 [18]: 3 nM; Selectivity vs. IMR-90, HCT-116 [18]: 11 |
| C=C(C)C[C@H](OC)[C@H](O)C(=O)N[C@@H](OC)[C@@H]1C[C@@H](OC(C)=O)C(C)(C)[C@@H](C[C@H](O)[C@@H](C)[C@H]2Cc3c(C)c(O)cc(O)c3C(=O)O2)O1 [C(11)-OAc-Irciniastatin A] |  |  |  |  |  | 0.4 nM | 68 | 0.7 nM | 39 | 27 nM | IC50 [18]: 2 nM; Selectivity vs. IMR-90, HCT-116 [18]: 14 |
| C=C(C)C[C@H](OC)[C@H](O)C(=O)N[C@@H](OC)[C@@H]1CC(=O)C(C)(C)[C@@H](C[C@H](O)[C@@H](C)[C@H]2Cc3c(C)c(O)cc(O)c3C(=O)O2)O1 [Irciniastatin B, (−)-Irciniastatin B] |  |  |  |  |  | 0.5 nM | 114 | 0.8 nM | 71 | 57 nM | IC50 [18]: 3 nM; Selectivity vs. IMR-90, HCT-116 [18]: 19; Growth Inhibition of Cancer Cell Lines (GI50) [19]: 2.1 ng/mL; Growth Inhibition of Cancer Cell Lines (GI50) [20]: 0.73 ng/mL; Growth Inhibition of Cancer Cell Lines (GI50) [21]: 6 ng/mL; Growth Inhibition of Cancer Cell Lines (GI50) [22]: 0.5 ng/mL; Growth Inhibition of Cancer Cell Lines (GI50) [23]: 1.2 ng/mL; Growth Inhibition of Cancer Cell Lines (GI50) [24]: 0.66 ng/mL; Growth Inhibition of Cancer Cell Lines (GI50) [25]: 1.6 ng/mL |
| C=C(C)C[C@H](OC)[C@H](O)C(=O)N[C@@H](OC)[C@@H]1C[C@@H](OC(=O)c2ccccc2)C(C)(C)[C@@H](C[C@H](O)[C@@H](C)[C@H]2Cc3c(C)c(O)cc(O)c3C(=O)O2)O1 [C(11)-Obz-Irciniastatin A, C(11)-OBz-Irciniastatin A] |  |  |  |  |  | 2.7 nM | 30 | 5.4 nM | 15 | 81 nM |  |
| C=C1C[C@](OC)([C@H](O)C(=O)NC2OCO[C@H]3[C@@H]2O[C@H](C[C@H](O)CO)C(C)(C)[C@@H]3OC)O[C@H](C)[C@@H]1C (stereo partly shown) [compound 8] | 59 ± 32 nM | 64 nM | 3.79 ± 0.04 nM | 238 ± 44 nM | 2.52 ± 1.39 nM |  |  |  |  |  |  |
| C=C(C)C[C@H](OC)[C@H](O)C(=O)N[C@@H](OC)[C@@H]1CC(=C)C(C)(C)[C@@H](C[C@H](O)[C@@H](C)[C@H]2Cc3c(C)c(O)cc(O)c3C(=O)O2)O1 [C(11)-Exomethylene-Irciniastatin B] |  |  |  |  |  | 0.7 nM | 70 | 1.6 nM | 31 | 49 nM | IC50 [18]: 1 nM; Selectivity vs. IMR-90, HCT-116 [18]: 49 |
